Results as given in US20090275583A1, “ANTIVIRAL COMPOUNDS AND USE THEREOF” (Myriad Genetics, Incorporated, priority 2006, published 2009).
Where two headings read alike, the source gives them in different places.

What was measured:
[1] = tested on: HIV-1 laboratory strain, NL4-3; assay: MT-4 cytoprotection assay; format: cell-based
In short: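 MT-4 cells mock- or batch-infected with NL4-3 (MOI 0.0005) for 2 h, washed, then cultured 4 days with increasing compound concentrations. Viability read by WST-1 tetrazolium reduction: cytoprotection in infected cells, toxicity in mock-infected cells.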

HIV-1NL4-3 = assay: P4-MAGI assay; format: cell-based
In short: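 HeLa-derived CD4+ P4 cells carrying an LTR-driven lacZ were infected with HIV-1NL4-3 at MOI 1 with DEAE-Dextran, then compound added in increasing concentrations right after virus; infection reported as Tat-induced β-galactosidase. TC50 measured by WST-1 in mock-infected cells.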

[2] = Human immunodeficiency virus 1, NL43, MT4, 96 h, MT-4 cells, four days incubation, WST-1 readout, read-out: MT4 EC50
[3] = Human immunodeficiency virus 1, NL43, less than about 100 nm, read-out: MT-4 assay EC50 (concentration of compound that reduces the virus induced cytopathic effect by 50%)
[4] = Human immunodeficiency virus 1, 24 h, P4 cells, 24 hour incubation, β-galactosidase expression, read-out: P4-MAGI IC50
[5] = Human immunodeficiency virus 1, text statement, less than about 100 nm, read-out: P4-MAGI assay IC50

Structure (SMILES) | EC50 [1, 2] [nM] | EC50 [1, 3] [nM] | IC50 (HIV-1NL4-3; [4]) [nM] | IC50 (HIV-1NL4-3; [5]) [nM]
C=C(C)[C@@H]1CC[C@]2(C(=O)NCCc3cccc(C(=O)NCc4cccc(C(=O)OC)c4F)c3)CC[C@]3(C)C(CCC4[C@@]5(C)CC[C@H](O)C(C)(C)C5CC[C@]43C)C12 (some centres unmarked) [Example 74] | 0.8 | < 100 | 27.6 | < 100
C=C(C)[C@@H]1CC[C@]2(C(=O)NCCc3cccc(C(=O)NCCc4ccc(C(=O)O)cc4F)c3)CC[C@]3(C)C(CCC4[C@@]5(C)CC[C@H](O)C(C)(C)C5CC[C@]43C)C12 (some centres unmarked) [Example 75] | 1.4 | < 100 | 36.3 | < 100
C=C(C)[C@@H]1CC[C@]2(C(=O)NCCc3cccc(C(=O)NCc4ccc(C(=O)O)cn4)c3)CC[C@]3(C)C(CCC4[C@@]5(C)CC[C@H](O)C(C)(C)C5CC[C@]43C)C12 (some centres unmarked) [Example 76] | 89 | < 100 | 10.4 | < 100
C=C(C)[C@@H]1CC[C@]2(C(=O)NCc3cccc(CNCc4nc5ccc(C(=O)O)cc5[nH]4)c3)CC[C@]3(C)C(CCC4[C@@]5(C)CC[C@H](O)C(C)(C)C5CC[C@]43C)C12 (some centres unmarked) [Example 80] | 1000 |  | 242 | 
C=C(C)[C@@H]1CC[C@]2(C(=O)NCc3ccnc(C(=O)NCCc4ccc(C(=O)O)cc4)c3)CC[C@]3(C)C(CCC4[C@@]5(C)CC[C@H](O)C(C)(C)C5CC[C@]43C)C12 (some centres unmarked) [Example 92] | 4870 |  | 121 | 
C=C(C)[C@@H]1CC[C@]2(C(=O)NCCc3cccc(C(=O)NCc4ccc(C(=O)OC)cc4)c3F)CC[C@]3(C)C(CCC4[C@@]5(C)CC[C@H](O)C(C)(C)C5CC[C@]43C)C12 (some centres unmarked) [Example 93] | 40 | < 100 | 33.9 | < 100
C=C(C)[C@@H]1CC[C@]2(C(=O)NCCc3cccc(C(=O)NCc4ccc(C(=O)O)cc4)c3F)CC[C@]3(C)C(CCC4[C@@]5(C)CC[C@H](O)C(C)(C)C5CC[C@]43C)C12 (some centres unmarked) [Example 94] | 290 |  | 70.5 | < 100
C=C(C)[C@@H]1CC[C@]2(C(=O)NCc3cc(C(=O)NCCc4ccc(C(=O)O)cc4)ccc3F)CC[C@]3(C)C(CCC4[C@@]5(C)CC[C@H](O)C(C)(C)C5CC[C@]43C)C12 (some centres unmarked) [Example 95] | 1.5 | < 100 | 11.2 | < 100
C=C(C)[C@@H]1CC[C@]2(C(=O)NCc3cc(C(=O)NCCc4ccc(C(=O)OC)cc4)ccc3F)CC[C@]3(C)C(CCC4[C@@]5(C)CC[C@H](O)C(C)(C)C5CC[C@]43C)C12 (some centres unmarked) [Example 96] | 3.5 | < 100 | 33 | < 100
C=C(C)[C@@H]1CC[C@]2(C(=O)NCc3cc(C(=O)NCCc4cccc(C(=O)O)c4)ccc3F)CC[C@]3(C)C(CCC4[C@@]5(C)CC[C@H](O)C(C)(C)C5CC[C@]43C)C12 (some centres unmarked) [Example 97] | 1 | < 100 | 23.7 | < 100
C=C(C)[C@@H]1CC[C@]2(C(=O)NCc3cc(C(=O)NCCc4cccc(C(=O)OC)c4)ccc3F)CC[C@]3(C)C(CCC4[C@@]5(C)CC[C@H](O)C(C)(C)C5CC[C@]43C)C12 (some centres unmarked) [Example 98] | 13 | < 100 | 57.7 | < 100
C=C(C)[C@@H]1CC[C@]2(C(=O)NCc3cc(C(=O)NCc4ccc(C(=O)O)cc4)ccc3F)CC[C@]3(C)C(CCC4[C@@]5(C)CC[C@H](O)C(C)(C)C5CC[C@]43C)C12 (some centres unmarked) [Example 99] | 2.8 | < 100 | 20.1 | < 100
C=C(C)[C@@H]1CC[C@]2(C(=O)NCc3cc(C(=O)NCc4ccc(C(=O)OC)cc4)ccc3F)CC[C@]3(C)C(CCC4[C@@]5(C)CC[C@H](O)C(C)(C)C5CC[C@]43C)C12 (some centres unmarked) [Example 100] | 1.3 | < 100 | 21.5 | < 100
C=C(C)[C@@H]1CC[C@]2(C(=O)NCc3cc(C(=O)NCc4cccc(C(=O)O)c4)ccc3F)CC[C@]3(C)C(CCC4[C@@]5(C)CC[C@H](O)C(C)(C)C5CC[C@]43C)C12 (some centres unmarked) [Example 101] | 3.2 | < 100 | 28.3 | < 100
C=C(C)[C@@H]1CC[C@]2(C(=O)NCc3cc(C(=O)NCc4cccc(C(=O)OC)c4)ccc3F)CC[C@]3(C)C(CCC4[C@@]5(C)CC[C@H](O)C(C)(C)C5CC[C@]43C)C12 (some centres unmarked) [Example 102] | 0.6 | < 100 | 22 | < 100
C=C(C)[C@@H]1CC[C@]2(C(=O)NCc3ccc(F)c(C(=O)NCCc4ccc(C(=O)O)cc4)c3)CC[C@]3(C)C(CCC4[C@@]5(C)CC[C@H](O)C(C)(C)C5CC[C@]43C)C12 (some centres unmarked) [Example 103] | 7.3 | < 100 | 69.3 | < 100
C=C(C)[C@@H]1CC[C@]2(C(=O)NCc3ccc(F)c(C(=O)NCCc4cccc(C(=O)O)c4)c3)CC[C@]3(C)C(CCC4[C@@]5(C)CC[C@H](O)C(C)(C)C5CC[C@]43C)C12 (some centres unmarked) [Example 105] | 8.5 | < 100 | 62.1 | < 100
C=C(C)[C@@H]1CC[C@]2(C(=O)NCc3ccc(F)c(C(=O)NCc4ccc(C(=O)O)cc4)c3)CC[C@]3(C)C(CCC4[C@@]5(C)CC[C@H](O)C(C)(C)C5CC[C@]43C)C12 (some centres unmarked) [Example 107] | 130 |  | 103 | 
C=C(C)[C@@H]1CC[C@]2(C(=O)NCc3ccc(F)c(C(=O)NCc4ccc(C(=O)OC)cc4)c3)CC[C@]3(C)C(CCC4[C@@]5(C)CC[C@H](O)C(C)(C)C5CC[C@]43C)C12 (some centres unmarked) [Example 108] | 100 | < 100 | 109 | 
C=C(C)[C@@H]1CC[C@]2(C(=O)NCc3ccc(F)c(C(=O)NCc4cccc(C(=O)O)c4)c3)CC[C@]3(C)C(CCC4[C@@]5(C)CC[C@H](O)C(C)(C)C5CC[C@]43C)C12 (some centres unmarked) [Example 109] | 50 | < 100 | 149 | 
C=C(C)[C@@H]1CC[C@]2(C(=O)NCCc3ccc(O)cc3)CC[C@]3(C)C(CCC4[C@@]5(C)CC[C@H](O)C(C)(C)C5CC[C@]43C)C12 (some centres unmarked) [Example 111] | 3800 |  | 72.2 | < 100
C=C(C)[C@@H]1CC[C@]2(C(=O)NCc3ccc(OC)c(C(=O)NCCCCC(=O)O)c3)CC[C@]3(C)C(CCC4[C@@]5(C)CC[C@H](O)C(C)(C)C5CC[C@]43C)C12 (some centres unmarked) [Example 114] | 211 |  | 48.4 | < 100
C=C(C)[C@@H]1CC[C@]2(C(=O)NCc3cccc(C(=O)NCc4ccc(OCCCC(=O)O)c(C(=O)O)c4)c3)CC[C@]3(C)C(CCC4[C@@]5(C)CC[C@H](O)C(C)(C)C5CC[C@]43C)C12 (some centres unmarked) [Example 117] | 384 |  | 76 | < 100
C=C(C)[C@@H]1CC[C@]2(C(=O)NCc3cccc(C(=O)NCc4ccc(OCCCn5ccnc5)c(C(=O)OC)c4)c3)CC[C@]3(C)C(CCC4[C@@]5(C)CC[C@H](O)C(C)(C)C5CC[C@]43C)C12 (some centres unmarked) [Example 121] | 17 |  | 21.3 | 
C=C(C)[C@@H]1CC[C@]2(C(=O)NCc3cccc(C(=O)NCc4ccc(OCCCN5CCOCC5)c(C(=O)OC)c4)c3)CC[C@]3(C)C(CCC4[C@@]5(C)CC[C@H](O)C(C)(C)C5CC[C@]43C)C12 (some centres unmarked) [Example 123] | 13 | < 100 | 18.9 | < 100
